Results from PubChem BioAssay (NCI).
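96-well plates; 48 h exposure; 5 concentrations. Endpoints by linear interpolation between flanking doses. Not reached: highest tested concentration assigned. GI50: concentration for 50% inhibition of growth. Definition used: TGI = concentration required for complete inhibition of growth.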

Columns and labels:
Experiment in all cases: DTP human tumour cell line panel, 48 h
HOP-62 NSCLC = system: HOP-62 NSCLC
PC-3 prostate = system: PC-3 prostate
NCI/ADR-RES ovarian = system: NCI/ADR-RES ovarian
MALME-3M melanoma = system: MALME-3M melanoma
MDA-MB-231 breast = system: MDA-MB-231 breast
OVCAR-8 ovarian = system: OVCAR-8 ovarian
A498 renal = system: A498 renal
HCT-116 colon = system: HCT-116 colon
K-562 leukemia = system: K-562 leukemia
MDA-N = system: MDA-N

SMILES	GI50 (HOP-62 NSCLC) [µM]	TGI (HOP-62 NSCLC) [µM]	GI50 (PC-3 prostate) [µM]	TGI (PC-3 prostate) [µM]	GI50 (NCI/ADR-RES ovarian) [µM]	TGI (NCI/ADR-RES ovarian) [µM]	GI50 (MALME-3M melanoma) [µM]	TGI (MALME-3M melanoma) [µM]	GI50 (MDA-MB-231 breast) [µM]	TGI (MDA-MB-231 breast) [µM]	GI50 (OVCAR-8 ovarian) [µM]	TGI (OVCAR-8 ovarian) [µM]	GI50 (A498 renal) [µM]	TGI (A498 renal) [µM]	GI50 (HCT-116 colon) [µM]	TGI (HCT-116 colon) [µM]	GI50 (K-562 leukemia) [µM]	TGI (K-562 leukemia) [µM]	TGI (MDA-N) [µM]
CN1CCN(c2ccc(-c3ccc4ncc(C#N)c(Nc5ccc(F)c(Cl)c5)c4c3)cc2)CC1	2.22	7.55	2.08	7.92	4.57	27.9	1.74	4.04	6	28.5	2.74	14.5	2.43	12.4					
COc1cc(-c2n/c(=C\c3c(O)[nH]c4ccc(Cl)cc34)cc3c2=Nc2ccccc2-3)cc(OC)c1OC	0.383	0.783	1.82	5.92	2.01	7.55			1.47	3.12			1.76	4.71	0.232	0.595	0.728	10.1	
Cc1nc(Cl)c(Cl)c(Cl)n1		0.974		0.988		15.3		0.573		0.656		2		4.81		0.24		0.0358	3.15
O=C(N/C(=C\c1ccccc1[N+](=O)[O-])c1nc2ccccc2[nH]1)c1ccccc1								> 100				> 100						> 100	
CC(C)(N)CO[C@H]1C[C@H]2CC[C@@]1(C)C2(C)C		44		> 100		> 100		33.6		36.5		53.1		82.1		29.8		43.3	30.2
O=c1[nH][nH]c(=O)[nH]1		> 100						> 100								> 100		> 100	
CCn1nc(C)c2c1C(=O)NC(C)C(=O)N2 (stereo not given)				> 100								> 100		> 100		> 100			> 100
